Test results taken from the kinase profiling compilation of Christmann-Franck et al. (2016).

What was measured:
Assay in all cases: radiometric filter-binding kinase assay
PIM2 (human) = PIM2 (human) (UniProt Q9P1W9)
CHEK1 (human) = CHEK1 (human) (UniProt O14757)
MAP2K2 (human) = MAP2K2 (human) (UniProt P36507)
MAP3K9 (human) = MAP3K9 (human) (UniProt P80192)
MAPKAPK2 (human) = MAPKAPK2 (human) (UniProt P49137)
EPHB4 (human) = EPHB4 (human) (UniProt P54760)
YES1 (human) = YES1 (human) (UniProt P07947)
Chain of YES1 (human) (P07947 whole entry, looked up): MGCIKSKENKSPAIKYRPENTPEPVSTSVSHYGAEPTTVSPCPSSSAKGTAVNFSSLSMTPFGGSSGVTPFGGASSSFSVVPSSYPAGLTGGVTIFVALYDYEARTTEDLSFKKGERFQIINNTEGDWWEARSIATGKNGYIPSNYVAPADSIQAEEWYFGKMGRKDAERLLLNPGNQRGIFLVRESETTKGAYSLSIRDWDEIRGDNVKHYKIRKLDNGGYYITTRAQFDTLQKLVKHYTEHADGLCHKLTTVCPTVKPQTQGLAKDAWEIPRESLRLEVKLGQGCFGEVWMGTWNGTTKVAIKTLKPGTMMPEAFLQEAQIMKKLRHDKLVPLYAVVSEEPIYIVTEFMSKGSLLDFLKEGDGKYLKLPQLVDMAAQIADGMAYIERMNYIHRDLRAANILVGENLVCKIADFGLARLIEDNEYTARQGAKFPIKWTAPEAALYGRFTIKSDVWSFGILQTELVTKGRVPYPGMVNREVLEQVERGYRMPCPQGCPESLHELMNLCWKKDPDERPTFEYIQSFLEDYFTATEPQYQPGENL

RPS6KA5 KD1 KD2 (human) = RPS6KA5 KD1 KD2 (human) (UniProt O75582)
INSRR (human) = INSRR (human) (UniProt P14616)
[1] = test system: PAK2 (human), Q13177 [T402E]
SRPK1 (human) = SRPK1 (human) (UniProt Q96SB4)
MKNK2 (human) = MKNK2 (human) (UniProt Q9HBH9)
EPHA4 (human) = EPHA4 (human) (UniProt P54764)
Chain of EPHA4 (human) (P54764 whole entry, looked up): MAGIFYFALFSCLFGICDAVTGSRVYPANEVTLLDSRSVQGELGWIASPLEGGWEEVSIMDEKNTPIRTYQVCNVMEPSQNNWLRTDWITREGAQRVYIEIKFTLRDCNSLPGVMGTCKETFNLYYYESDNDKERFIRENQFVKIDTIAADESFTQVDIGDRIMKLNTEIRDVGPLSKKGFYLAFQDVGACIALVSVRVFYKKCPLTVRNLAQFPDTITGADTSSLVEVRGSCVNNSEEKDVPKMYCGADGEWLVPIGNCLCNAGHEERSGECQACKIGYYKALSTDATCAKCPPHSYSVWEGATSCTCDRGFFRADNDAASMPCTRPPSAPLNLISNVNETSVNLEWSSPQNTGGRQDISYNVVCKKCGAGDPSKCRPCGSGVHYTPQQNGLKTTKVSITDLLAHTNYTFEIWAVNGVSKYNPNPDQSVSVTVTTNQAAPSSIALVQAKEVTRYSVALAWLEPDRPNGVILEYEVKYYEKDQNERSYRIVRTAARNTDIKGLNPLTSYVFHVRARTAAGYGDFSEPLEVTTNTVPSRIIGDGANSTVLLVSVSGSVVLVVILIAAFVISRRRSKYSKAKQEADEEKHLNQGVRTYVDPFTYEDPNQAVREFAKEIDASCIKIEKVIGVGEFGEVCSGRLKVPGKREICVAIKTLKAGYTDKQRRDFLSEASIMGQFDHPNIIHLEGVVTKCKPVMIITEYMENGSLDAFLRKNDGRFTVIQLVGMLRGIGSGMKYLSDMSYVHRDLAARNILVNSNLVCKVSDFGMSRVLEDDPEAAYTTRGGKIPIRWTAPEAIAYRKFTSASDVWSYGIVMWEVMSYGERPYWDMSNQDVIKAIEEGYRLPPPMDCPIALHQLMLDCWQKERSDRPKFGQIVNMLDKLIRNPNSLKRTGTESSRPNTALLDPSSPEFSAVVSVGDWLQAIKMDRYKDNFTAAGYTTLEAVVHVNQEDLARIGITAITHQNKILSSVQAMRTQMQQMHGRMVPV

PAK6 (human) = PAK6 (human) (UniProt Q9NQU5)
CDK2 CCNA2 (human) = CDK2 CCNA2 (human) (UniProt P20248+P24941)
TBK1 (human) = TBK1 (human) (UniProt Q9UHD2)
Chain of TBK1 (human) (Q9UHD2 whole entry, looked up): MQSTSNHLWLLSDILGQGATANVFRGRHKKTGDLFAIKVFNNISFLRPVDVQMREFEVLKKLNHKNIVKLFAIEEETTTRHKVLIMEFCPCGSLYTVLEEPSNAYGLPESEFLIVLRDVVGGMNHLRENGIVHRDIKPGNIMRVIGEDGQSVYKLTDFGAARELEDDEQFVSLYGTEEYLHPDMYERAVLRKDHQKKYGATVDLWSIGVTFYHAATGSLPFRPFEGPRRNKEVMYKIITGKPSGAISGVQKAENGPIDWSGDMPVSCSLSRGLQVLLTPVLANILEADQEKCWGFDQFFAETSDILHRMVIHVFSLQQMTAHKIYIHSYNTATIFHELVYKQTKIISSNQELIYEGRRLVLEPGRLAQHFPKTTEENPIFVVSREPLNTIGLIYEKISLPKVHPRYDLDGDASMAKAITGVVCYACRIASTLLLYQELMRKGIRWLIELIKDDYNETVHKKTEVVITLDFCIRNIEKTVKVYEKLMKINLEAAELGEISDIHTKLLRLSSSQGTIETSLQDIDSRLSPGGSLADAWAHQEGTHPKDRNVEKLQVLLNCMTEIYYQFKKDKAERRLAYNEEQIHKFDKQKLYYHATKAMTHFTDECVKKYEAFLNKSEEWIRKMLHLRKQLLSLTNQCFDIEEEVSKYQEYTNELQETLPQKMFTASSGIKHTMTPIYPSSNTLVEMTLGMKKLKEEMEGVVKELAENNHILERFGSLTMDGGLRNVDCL

IKBKB (human) = IKBKB (human) (UniProt O14920)
GCK (human) = GCK (human) (UniProt Q12851)
NEK6 (human) = NEK6 (human) (UniProt Q9HC98)
MARK3 (human) = MARK3 (human) (UniProt P27448)
MAPK9 (human) = MAPK9 (human) (UniProt P45984)
TTK (human) = TTK (human) (UniProt P33981)
PKN2 (human) = PKN2 (human) (UniProt Q16513)
[2] = test system: RPS6KB1 (human), P23443 [T412E]
DAPK1 (human) = DAPK1 (human) (UniProt P53355)
Chain of DAPK1 (human) (P53355 whole entry, looked up): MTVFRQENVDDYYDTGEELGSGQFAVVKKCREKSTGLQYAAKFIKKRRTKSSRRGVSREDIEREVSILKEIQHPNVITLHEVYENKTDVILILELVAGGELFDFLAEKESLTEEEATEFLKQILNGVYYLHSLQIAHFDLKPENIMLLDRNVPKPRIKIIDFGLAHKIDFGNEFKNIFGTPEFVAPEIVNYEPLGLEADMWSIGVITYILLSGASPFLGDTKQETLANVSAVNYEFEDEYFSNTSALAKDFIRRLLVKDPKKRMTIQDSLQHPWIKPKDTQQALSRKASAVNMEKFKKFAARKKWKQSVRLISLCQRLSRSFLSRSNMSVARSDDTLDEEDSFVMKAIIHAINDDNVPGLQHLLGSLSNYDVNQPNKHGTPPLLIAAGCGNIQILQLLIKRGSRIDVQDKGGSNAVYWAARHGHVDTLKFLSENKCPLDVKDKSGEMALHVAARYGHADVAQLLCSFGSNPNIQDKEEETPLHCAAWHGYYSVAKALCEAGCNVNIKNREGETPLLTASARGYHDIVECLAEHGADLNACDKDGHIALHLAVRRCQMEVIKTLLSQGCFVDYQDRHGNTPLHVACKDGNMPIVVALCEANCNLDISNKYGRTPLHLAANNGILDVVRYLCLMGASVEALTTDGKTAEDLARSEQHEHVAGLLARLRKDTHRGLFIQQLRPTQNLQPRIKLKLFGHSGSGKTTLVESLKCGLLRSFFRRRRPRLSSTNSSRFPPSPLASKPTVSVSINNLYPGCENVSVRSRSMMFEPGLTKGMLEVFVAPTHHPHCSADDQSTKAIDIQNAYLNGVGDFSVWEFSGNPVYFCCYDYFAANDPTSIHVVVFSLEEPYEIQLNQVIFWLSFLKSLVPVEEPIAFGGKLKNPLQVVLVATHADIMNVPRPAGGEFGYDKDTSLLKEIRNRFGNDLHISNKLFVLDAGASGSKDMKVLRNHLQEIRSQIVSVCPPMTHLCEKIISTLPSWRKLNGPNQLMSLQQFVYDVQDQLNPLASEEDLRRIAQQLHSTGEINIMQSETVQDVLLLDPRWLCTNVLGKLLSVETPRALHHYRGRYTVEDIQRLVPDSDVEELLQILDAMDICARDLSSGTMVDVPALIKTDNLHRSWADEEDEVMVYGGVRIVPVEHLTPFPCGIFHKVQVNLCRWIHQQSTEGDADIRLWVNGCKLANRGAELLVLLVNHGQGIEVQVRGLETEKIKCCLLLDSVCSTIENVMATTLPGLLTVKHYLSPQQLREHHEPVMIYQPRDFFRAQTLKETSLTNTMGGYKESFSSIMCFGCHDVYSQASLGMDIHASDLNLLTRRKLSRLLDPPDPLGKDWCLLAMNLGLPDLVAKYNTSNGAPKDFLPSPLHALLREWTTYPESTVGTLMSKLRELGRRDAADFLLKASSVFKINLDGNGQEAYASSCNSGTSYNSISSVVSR

MARK4 (human) = MARK4 (human) (UniProt Q96L34)
PIM1 (human) = PIM1 (human) (UniProt P11309)
CSNK2A1 (human) = CSNK2A1 (human) (UniProt P68400)
BTK (human) = BTK (human) (UniProt Q06187)
EPHB1 (human) = EPHB1 (human) (UniProt P54762)
STK3 (human) = STK3 (human) (UniProt Q13188)
Chain of STK3 (human) (Q13188 whole entry, looked up): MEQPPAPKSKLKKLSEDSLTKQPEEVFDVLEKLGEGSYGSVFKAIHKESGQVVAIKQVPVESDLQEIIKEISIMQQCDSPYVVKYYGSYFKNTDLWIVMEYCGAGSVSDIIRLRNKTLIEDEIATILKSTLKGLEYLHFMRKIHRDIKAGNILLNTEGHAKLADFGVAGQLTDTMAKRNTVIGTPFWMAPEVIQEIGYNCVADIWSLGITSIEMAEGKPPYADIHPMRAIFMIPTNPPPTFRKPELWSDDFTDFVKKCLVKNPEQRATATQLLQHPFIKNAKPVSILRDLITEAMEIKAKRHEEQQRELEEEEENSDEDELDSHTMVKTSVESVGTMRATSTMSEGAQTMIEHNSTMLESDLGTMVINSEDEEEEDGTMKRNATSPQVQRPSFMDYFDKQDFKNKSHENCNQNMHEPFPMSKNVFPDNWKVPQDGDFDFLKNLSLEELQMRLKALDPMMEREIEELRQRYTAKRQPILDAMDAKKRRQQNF

EEF2K (human) = EEF2K (human) (UniProt O00418)
MAP2K1 (human) = MAP2K1 (human) (UniProt Q02750)
MYLK (human) = MYLK (human) (UniProt Q15746)
MAP3K5 (human) = MAP3K5 (human) (UniProt Q99683)
PIM3 (human) = PIM3 (human) (UniProt Q86V86)

Chain of PIM2 (human) (Q9P1W9 whole entry, looked up): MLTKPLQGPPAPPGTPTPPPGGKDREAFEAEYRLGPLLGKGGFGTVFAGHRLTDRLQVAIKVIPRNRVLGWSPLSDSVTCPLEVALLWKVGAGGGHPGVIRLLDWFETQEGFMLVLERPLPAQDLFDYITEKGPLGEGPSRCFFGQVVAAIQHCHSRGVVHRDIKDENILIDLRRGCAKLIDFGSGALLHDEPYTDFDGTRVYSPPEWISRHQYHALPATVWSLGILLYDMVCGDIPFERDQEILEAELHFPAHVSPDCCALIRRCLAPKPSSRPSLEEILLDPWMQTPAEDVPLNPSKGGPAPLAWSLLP
Chain of MAPKAPK2 (human) (P49137 whole entry, looked up): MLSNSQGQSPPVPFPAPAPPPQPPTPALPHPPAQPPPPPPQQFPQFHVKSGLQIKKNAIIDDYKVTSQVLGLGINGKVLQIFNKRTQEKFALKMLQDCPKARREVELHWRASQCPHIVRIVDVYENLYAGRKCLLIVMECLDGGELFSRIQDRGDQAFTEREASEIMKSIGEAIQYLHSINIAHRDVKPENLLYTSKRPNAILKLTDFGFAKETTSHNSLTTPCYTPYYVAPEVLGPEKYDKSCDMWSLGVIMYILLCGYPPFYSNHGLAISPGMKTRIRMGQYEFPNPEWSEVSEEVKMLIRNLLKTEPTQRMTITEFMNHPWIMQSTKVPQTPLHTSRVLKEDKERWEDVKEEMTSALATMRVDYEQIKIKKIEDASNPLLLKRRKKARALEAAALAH

## c1ccc2c(-c3cnn4cc(-c5ccc(N6CCNCC6)cc5)cnc34)ccnc2c1
PIM2 (human); compound 0.1 µM
  residual activity: 98%
PIM2 (human); compound 1.0 µM
  residual activity: 104%
PIM2 (human); compound 10.0 µM
  residual activity: 92%
CHEK1 (human); compound 0.1 µM
  residual activity: 101%
CHEK1 (human); compound 1.0 µM
  residual activity: 109%
CHEK1 (human); compound 10.0 µM
  residual activity: 96%
MAP2K2 (human); compound 0.1 µM
  residual activity: 88%
MAP2K2 (human); compound 1.0 µM
  residual activity: 91%
MAP2K2 (human); compound 10.0 µM
  residual activity: 52%
MAP3K9 (human); compound 0.1 µM
  residual activity: 104%
MAP3K9 (human); compound 1.0 µM
  residual activity: 70%
MAPKAPK2 (human); compound 0.1 µM
  residual activity: 81%
MAPKAPK2 (human); compound 1.0 µM
  residual activity: 91%
MAPKAPK2 (human); compound 10.0 µM
  residual activity: 73%
EPHB4 (human); compound 0.1 µM
  residual activity: 96%
EPHB4 (human); compound 1.0 µM
  residual activity: 89%
EPHB4 (human); compound 10.0 µM
  residual activity: 46%
YES1 (human); compound 0.1 µM
  residual activity: 73%
YES1 (human); compound 1.0 µM
  residual activity: 21%
YES1 (human); compound 10.0 µM
  residual activity: 7%
RPS6KA5 KD1 KD2 (human); compound 0.1 µM
  residual activity: 91%
RPS6KA5 KD1 KD2 (human); compound 1.0 µM
  residual activity: 83%
RPS6KA5 KD1 KD2 (human); compound 10.0 µM
  residual activity: 87%
INSRR (human); compound 0.1 µM
  residual activity: 82%
INSRR (human); compound 1.0 µM
  residual activity: 68%
INSRR (human); compound 10.0 µM
  residual activity: 37%
[1]; compound 0.1 µM
  residual activity: 100%
[1]; compound 10.0 µM
  residual activity: 94%
SRPK1 (human); compound 0.1 µM
  residual activity: 95%
SRPK1 (human); compound 1.0 µM
  residual activity: 116%
SRPK1 (human); compound 10.0 µM
  residual activity: 79%
MKNK2 (human); compound 0.1 µM
  residual activity: 90%
MKNK2 (human); compound 1.0 µM
  residual activity: 60%
MKNK2 (human); compound 10.0 µM
  residual activity: 34%
EPHA4 (human); compound 0.1 µM
  residual activity: 84%
EPHA4 (human); compound 1.0 µM
  residual activity: 83%
EPHA4 (human); compound 10.0 µM
  residual activity: 57%
PAK6 (human); compound 0.1 µM
  residual activity: 108%
PAK6 (human); compound 1.0 µM
  residual activity: 107%
PAK6 (human); compound 10.0 µM
  residual activity: 100%
CDK2 CCNA2 (human); compound 0.1 µM
  residual activity: 84%
CDK2 CCNA2 (human); compound 1.0 µM
  residual activity: 84%
CDK2 CCNA2 (human); compound 10.0 µM
  residual activity: 34%
TBK1 (human); compound 0.1 µM
  residual activity: 74%
TBK1 (human); compound 1.0 µM
  residual activity: 62%
TBK1 (human); compound 10.0 µM
  residual activity: 26%
IKBKB (human); compound 1.0 µM
  residual activity: 98%
IKBKB (human); compound 10.0 µM
  residual activity: 83%
GCK (human); compound 0.1 µM
  residual activity: 37%
GCK (human); compound 1.0 µM
  residual activity: 11%
GCK (human); compound 10.0 µM
  residual activity: 3%
NEK6 (human); compound 0.1 µM
  residual activity: 80%
NEK6 (human); compound 1.0 µM
  residual activity: 83%
NEK6 (human); compound 10.0 µM
  residual activity: 88%
MARK3 (human); compound 0.1 µM
  residual activity: 78%
MARK3 (human); compound 1.0 µM
  residual activity: 34%
MARK3 (human); compound 10.0 µM
  residual activity: 11%
MAPK9 (human); compound 0.1 µM
  residual activity: 88%
MAPK9 (human); compound 1.0 µM
  residual activity: 103%
MAPK9 (human); compound 10.0 µM
  residual activity: 83%
TTK (human); compound 0.1 µM
  residual activity: 89%
TTK (human); compound 1.0 µM
  residual activity: 101%
TTK (human); compound 10.0 µM
  residual activity: 61%
PKN2 (human); compound 0.1 µM
  residual activity: 65%
PKN2 (human); compound 1.0 µM
  residual activity: 69%
PKN2 (human); compound 10.0 µM
  residual activity: 37%
[2]; compound 1.0 µM
  residual activity: 92%
[2]; compound 10.0 µM
  residual activity: 84%
DAPK1 (human); compound 0.1 µM
  residual activity: 89%
DAPK1 (human); compound 1.0 µM
  residual activity: 91%
DAPK1 (human); compound 10.0 µM
  residual activity: 72%
MARK4 (human); compound 0.1 µM
  residual activity: 75%
MARK4 (human); compound 1.0 µM
  residual activity: 58%
MARK4 (human); compound 10.0 µM
  residual activity: 24%
PIM1 (human); compound 0.1 µM
  residual activity: 83%
PIM1 (human); compound 1.0 µM
  residual activity: 83%
PIM1 (human); compound 10.0 µM
  residual activity: 82%
CSNK2A1 (human); compound 0.1 µM
  residual activity: 90%
CSNK2A1 (human); compound 1.0 µM
  residual activity: 89%
CSNK2A1 (human); compound 10.0 µM
  residual activity: 81%
BTK (human); compound 0.1 µM
  residual activity: 111%
BTK (human); compound 1.0 µM
  residual activity: 94%
BTK (human); compound 10.0 µM
  residual activity: 52%
EPHB1 (human); compound 0.1 µM
  residual activity: 117%
EPHB1 (human); compound 10.0 µM
  residual activity: 100%
STK3 (human); compound 0.1 µM
  residual activity: 102%
STK3 (human); compound 1.0 µM
  residual activity: 104%
STK3 (human); compound 10.0 µM
  residual activity: 76%
EEF2K (human); compound 0.1 µM
  residual activity: 95%
EEF2K (human); compound 1.0 µM
  residual activity: 96%
EEF2K (human); compound 10.0 µM
  residual activity: 79%
MAP2K1 (human); compound 0.1 µM
  residual activity: 98%
MAP2K1 (human); compound 1.0 µM
  residual activity: 93%
MAP2K1 (human); compound 10.0 µM
  residual activity: 67%
MYLK (human); compound 0.1 µM
  residual activity: 104%
MYLK (human); compound 1.0 µM
  residual activity: 107%
MYLK (human); compound 10.0 µM
  residual activity: 60%
MAP3K5 (human); compound 0.1 µM
  residual activity: 93%
MAP3K5 (human); compound 1.0 µM
  residual activity: 90%
MAP3K5 (human); compound 10.0 µM
  residual activity: 91%
PIM3 (human); compound 0.1 µM
  residual activity: 105%
PIM3 (human); compound 1.0 µM
  residual activity: 103%
PIM3 (human); compound 10.0 µM
  residual activity: 84%
